Measured values: ChEMBL document CHEMBL1152197, “Convergent synthesis and cruzain inhibitory activity of novel 2-(N'-benzylidenehydrazino)-4-trifluoromethyl-pyrimidines” (Bioorg Med Chem, 2008)

Assays:
[1] = target: Cruzipain (Trypanosoma cruzi, UniProt P25779); experiment: Inhibition of Trypanosoma cruzi C-terminal truncated cruzain expressed in DH5alpha Escherichia coli by well-microplate spectrophotometry
[2] = target: Cruzipain (Trypanosoma cruzi) (UniProt P25779); experiment: Inhibition of Trypanosoma cruzi C-terminal truncated cruzain expressed in DH5alpha Escherichia coli at 100 uM by well-microplate spectrophotometry
Sequence of Cruzipain (Trypanosoma cruzi) (P25779 123-467 limits assumed): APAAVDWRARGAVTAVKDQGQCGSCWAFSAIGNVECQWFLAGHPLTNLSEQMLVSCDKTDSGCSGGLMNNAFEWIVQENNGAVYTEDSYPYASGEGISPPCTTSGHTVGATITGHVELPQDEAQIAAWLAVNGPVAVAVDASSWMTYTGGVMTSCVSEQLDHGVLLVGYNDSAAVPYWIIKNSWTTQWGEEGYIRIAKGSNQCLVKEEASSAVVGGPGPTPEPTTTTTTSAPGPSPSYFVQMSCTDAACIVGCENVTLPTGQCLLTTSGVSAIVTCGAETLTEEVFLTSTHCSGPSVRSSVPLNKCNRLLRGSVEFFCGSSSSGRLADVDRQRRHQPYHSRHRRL

Sequence of Cruzipain (P25779 whole entry, the tested form may be a part): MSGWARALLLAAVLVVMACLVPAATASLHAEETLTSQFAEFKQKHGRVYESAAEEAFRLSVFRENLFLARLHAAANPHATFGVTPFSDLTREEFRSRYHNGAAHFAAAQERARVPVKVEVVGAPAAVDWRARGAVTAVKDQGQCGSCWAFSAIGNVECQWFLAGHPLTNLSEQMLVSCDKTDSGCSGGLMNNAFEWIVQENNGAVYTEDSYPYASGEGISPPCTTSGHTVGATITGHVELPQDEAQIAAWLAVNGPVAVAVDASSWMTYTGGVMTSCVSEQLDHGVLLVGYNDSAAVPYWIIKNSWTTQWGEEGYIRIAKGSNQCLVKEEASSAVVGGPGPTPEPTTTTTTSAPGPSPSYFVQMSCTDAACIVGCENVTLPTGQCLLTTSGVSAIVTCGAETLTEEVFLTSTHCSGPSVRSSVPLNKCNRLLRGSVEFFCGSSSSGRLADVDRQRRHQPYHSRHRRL

COc1ccccc1/C=N/Nc1nc(C)cc(C(F)(F)F)n1
IC50 [1]: > 150 µM | inhibition [2]: 20%

COc1ccc(/C=N/Nc2nccc(C(F)(F)F)n2)cc1
IC50 [1]: > 100 µM | inhibition [2]: 40%

Cc1cc(C(F)(F)F)nc(N/N=C/c2ccccc2C)n1
IC50 [1]: > 100 µM | inhibition [2]: 45%

Cc1ccc(/C=N/Nc2nccc(C(F)(F)F)n2)cc1
IC50 [1]: > 100 µM | inhibition [2]: 40%

FC(F)(F)c1ccnc(N/N=C/c2ccc(Cl)cc2)n1
IC50 [1]: 85 µM | inhibition [2]: 80%

Cc1ccccc1/C=N/Nc1nccc(C(F)(F)F)n1
IC50 [1]: > 100 µM | inhibition [2]: 45%

Cc1cc(C(F)(F)F)nc(N/N=C/c2ccc(Cl)cc2)n1
IC50 [1]: 100 µM | inhibition [2]: 60%

FC(F)(F)c1ccnc(N/N=C/c2ccccc2)n1
IC50 [1]: > 150 µM | inhibition [2]: 30%

O=[N+]([O-])c1ccc(/C=N/Nc2nccc(C(F)(F)F)n2)cc1
IC50 [1]: 100 µM | inhibition [2]: 50%
